In ChEMBL document CHEMBL5154681, “Small Amphiphilic Peptides: Activity Against a Broad Range of Drug-Resistant Bacteria and Structural Insight into Membranolytic Properties” (J Med Chem, 2022):
Values after ≈ are worked out from the molar mass of the structure shown. Square brackets hold non-standard residues; d marks the D form. Peptide text beside a SMILES is read from it. Bip = N[C@@H](Cc1ccc(-c2ccccc2)cc1)C(=O)O; Dip = N[C@H](C(=O)O)C(c1ccccc1)c1ccccc1; 2Nal = N[C@@H](Cc1ccc2ccccc2c1)C(=O)O

Key:
[1] = system: Staphylococcus aureus; assay: Antibacterial activity against Staphylococcus aureus ATCC 29213 incubated for 24 hrs by microtiter plate method; assay type: functional; conditions: Staphylococcus aureus, ATCC 29213, read-out: MIC
[2] = system: Pseudomonas aeruginosa; assay: Antibacterial activity against Pseudomonas aeruginosa ATCC 27883 incubated for 24 hrs by microtiter plate method; assay type: functional; conditions: Pseudomonas aeruginosa, ATCC 27883, 24 h, read-out: MIC
[3] = Hemolytic activity in human RBC assessed as hemolysis incubated for 2 hrs by spectrophotometer analysis; assay type: toxicity, cell-based, Erythrocyte; conditions: human red blood cells (erythrocytes)
[4] = system: Escherichia coli; assay: Antibacterial activity against Escherichia coli ATCC 25922 incubated for 24 hrs by microtiter plate method; assay type: functional; conditions: Escherichia coli, ATCC 25922, 24 h, read-out: MIC
[5] = system: Staphylococcus aureus; assay: Antibacterial activity against methicillin resistant Staphylococcus aureus ATCC BAA-1556 incubated for 24 hrs by microtiter plate method; assay type: functional
[6] = Staphylococcus aureus, ATCC BAA-1556, 24 h, read-out: MIC

| SMILES | MIC [1] [mg/L] | MIC [2] [mg/L] | HC50 at 2 h [3] [µg/mL] | MIC [4] [mg/L] | MIC [5, 6] [mg/L] | MIC ([5]; 24 h) [mg/L] |
| --- | --- | --- | --- | --- | --- | --- |
| N=C(N)NCCC[C@H](NC(=O)[C@H](Cc1ccc2ccccc2c1)NC(=O)[C@H](Cc1ccc2ccccc2c1)NC(=O)[C@H](CCCNC(=N)N)NC(=O)[C@H](CCCNC(=N)N)NC(=O)[C@H](Cc1ccc2ccccc2c1)NC(=O)[C@@H](N)CCCNC(=N)N)C(=O)O (H-R[2Nal]RR[2Nal][2Nal]R-OH) | 12.5 (≈ 10.1 µM) | 50 (≈ 40.5 µM) | 205 | 25 (≈ 20.3 µM) | 25 (≈ 20.3 µM) | – |
| N=C(N)NCCC[C@@H]1NC(=O)[C@H](CCCNC(=N)N)NC(=O)[C@H](CCCNC(=N)N)NC(=O)[C@H](C(c2ccccc2)c2ccccc2)NC(=O)[C@H](C(c2ccccc2)c2ccccc2)NC(=O)[C@H](C(c2ccccc2)c2ccccc2)NC(=O)[C@H](CCCNC(=N)N)NC(=O)[C@H](CCCNC(=N)N)NC1=O (cyclo([Dip][Dip][Dip]RRRRR)) | 6.2 (≈ 4.27 µM) | 25 (≈ 17.2 µM) | 100 | 25 (≈ 17.2 µM) | 6.2 (≈ 4.27 µM) | – |
| N=C(N)NCCC[C@H](NC(=O)[C@H](CCCNC(=N)N)NC(=O)[C@H](CCCNC(=N)N)NC(=O)[C@@H](N)CCCNC(=N)N)C(=O)N[C@@H](Cc1ccc(-c2ccccc2)cc1)C(=O)N[C@@H](Cc1ccc(-c2ccccc2)cc1)C(=O)N[C@@H](Cc1ccc(-c2ccccc2)cc1)C(=O)N[C@@H](Cc1ccc(-c2ccccc2)cc1)C(=O)O (H-RRRR[Bip][Bip][Bip][Bip]-OH) | > 100 | > 100 | – | > 100 | > 100 | – |
| N=C(N)NCCC[C@H](NC(=O)[C@H](CCCNC(=N)N)NC(=O)[C@@H](N)CCCNC(=N)N)C(=O)N[C@@H](CCCNC(=N)N)C(=O)N[C@H](C(=O)N[C@H](C(=O)O)C(c1ccccc1)c1ccccc1)C(c1ccccc1)c1ccccc1 (H-RRRR[Dip][Dip]-OH) | 12.5 (≈ 11.5 µM) | 50 (≈ 45.9 µM) | 185 | 50 (≈ 45.9 µM) | 12.5 (≈ 11.5 µM) | – |
| N=C(N)NCCC[C@H](NC(=O)[C@H](CCCNC(=N)N)NC(=O)[C@H](CCCNC(=N)N)NC(=O)[C@H](CCCNC(=N)N)NC(=O)[C@@H](N)CCCNC(=N)N)C(=O)N[C@@H](Cc1ccc2ccccc2c1)C(=O)N[C@@H](Cc1ccc2ccccc2c1)C(=O)N[C@@H](Cc1ccc2ccccc2c1)C(=O)O (H-RRRRR[2Nal][2Nal][2Nal]-OH) | 6.2 (≈ 4.46 µM) | 25 (≈ 18 µM) | 190 | 25 (≈ 18 µM) | 6.2 (≈ 4.46 µM) | – |
| N=C(N)NCCC[C@H](NC(=O)[C@H](CCCNC(=N)N)NC(=O)[C@H](CCCNC(=N)N)NC(=O)[C@@H](N)CCCNC(=N)N)C(=O)N[C@@H](CCCNC(=N)N)C(=O)N[C@H](C(=O)N[C@H](C(=O)N[C@H](C(=O)O)C(c1ccccc1)c1ccccc1)C(c1ccccc1)c1ccccc1)C(c1ccccc1)c1ccccc1 (H-RRRRR[Dip][Dip][Dip]-OH) | 12.5 (≈ 8.51 µM) | 50 (≈ 34 µM) | 165 | 25 (≈ 17 µM) | 12.5 (≈ 8.51 µM) | – |
| N=C(N)NCCC[C@@H]1NC(=O)[C@H](CCCNC(=N)N)NC(=O)[C@H](Cc2ccc(-c3ccccc3)cc2)NC(=O)[C@H](Cc2ccc(-c3ccccc3)cc2)NC(=O)[C@H](Cc2ccc(-c3ccccc3)cc2)NC(=O)[C@H](CCCNC(=N)N)NC1=O (cyclo([Bip][Bip][Bip]RRR)) | 50 (≈ 43.9 µM) | > 100 | – | > 100 | 50 (≈ 43.9 µM) | – |
| N=C(N)NCCC[C@H](NC(=O)[C@H](CCCNC(=N)N)NC(=O)[C@@H](N)CCCNC(=N)N)C(=O)N[C@@H](Cc1ccc2ccccc2c1)C(=O)N[C@@H](Cc1ccc2ccccc2c1)C(=O)N[C@@H](Cc1ccc2ccccc2c1)C(=O)O (H-RRR[2Nal][2Nal][2Nal]-OH) | 6.2 (≈ 5.75 µM) | 25 (≈ 23.2 µM) | 105 | 12.5 (≈ 11.6 µM) | 6.2 (≈ 5.75 µM) | – |
| NCCCC[C@@H]1NC(=O)[C@H](CCCCN)NC(=O)[C@H](CCCCN)NC(=O)[C@H](C(c2ccccc2)c2ccccc2)NC(=O)[C@H](C(c2ccccc2)c2ccccc2)NC(=O)[C@H](C(c2ccccc2)c2ccccc2)NC(=O)[C@H](CCCCN)NC(=O)[C@H](CCCCN)NC1=O (cyclo([Dip][Dip][Dip]KKKKK)) | 6.2 (≈ 4.73 µM) | > 100 | 180 | 50 (≈ 38.1 µM) | 12.5 (≈ 9.54 µM) | – |
| N=C(N)NCCC[C@@H]1NC(=O)[C@H](CCCNC(=N)N)NC(=O)[C@H](CCCNC(=N)N)NC(=O)[C@H](Cc2ccc3ccccc3c2)NC(=O)[C@H](Cc2ccc3ccccc3c2)NC(=O)[C@H](CCCNC(=N)N)NC1=O (cyclo([2Nal][2Nal]RRRR)) | 6.2 (≈ 6.08 µM) | 50 (≈ 49.1 µM) | 125 | 50 (≈ 49.1 µM) | 6.2 (≈ 6.08 µM) | – |
| NCCCC[C@H](NC(=O)[C@H](CCCCN)NC(=O)[C@@H](N)CCCCN)C(=O)N[C@@H](CCCCN)C(=O)N[C@H](C(=O)N[C@H](C(=O)N[C@H](C(=O)O)C(c1ccccc1)c1ccccc1)C(c1ccccc1)c1ccccc1)C(c1ccccc1)c1ccccc1 (H-KKKK[Dip][Dip][Dip]-OH) | 25 (≈ 20.8 µM) | > 100 | 255 | > 100 | 25 (≈ 20.8 µM) | – |
| N=C(N)NCCC[C@@H]1NC(=O)[C@H](CCCNC(=N)N)NC(=O)[C@H](CCCNC(=N)N)NC(=O)[C@H](Cc2ccc3ccccc3c2)NC(=O)[C@H](Cc2ccc3ccccc3c2)NC(=O)[C@H](Cc2ccc3ccccc3c2)NC(=O)[C@H](Cc2ccc3ccccc3c2)NC(=O)[C@H](CCCNC(=N)N)NC1=O (cyclo([2Nal][2Nal][2Nal][2Nal]RRRR)) | 3.1 (≈ 2.19 µM) | 50 (≈ 35.4 µM) | 30 | 25 (≈ 17.7 µM) | 6.2 (≈ 4.39 µM) | – |
| N=C(N)NCCC[C@@H]1NC(=O)[C@H](CCCNC(=N)N)NC(=O)[C@H](CCCNC(=N)N)NC(=O)[C@H](C(c2ccccc2)c2ccccc2)NC(=O)[C@H](C(c2ccccc2)c2ccccc2)NC(=O)[C@H](C(c2ccccc2)c2ccccc2)NC(=O)[C@H](C(c2ccccc2)c2ccccc2)NC(=O)[C@H](CCCNC(=N)N)NC1=O (cyclo([Dip][Dip][Dip][Dip]RRRR)) | 3.1 (≈ 2.04 µM) | 25 (≈ 16.5 µM) | 40 | 25 (≈ 16.5 µM) | 6.2 (≈ 4.08 µM) | – |
| N=C(N)NCCC[C@H](NC(=O)[C@H](CCCNC(=N)N)NC(=O)[C@H](Cc1ccc2ccccc2c1)NC(=O)[C@H](Cc1ccc2ccccc2c1)NC(=O)[C@H](CCCNC(=N)N)NC(=O)[C@@H](N)CCCNC(=N)N)C(=O)N[C@@H](Cc1ccc2ccccc2c1)C(=O)O (H-RR[2Nal][2Nal]RR[2Nal]-OH) | 12.5 (≈ 10.1 µM) | 25 (≈ 20.3 µM) | 195 | 25 (≈ 20.3 µM) | 25 (≈ 20.3 µM) | – |
| N=C(N)NCCC[C@@H]1NC(=O)[C@H](CCCNC(=N)N)NC(=O)[C@H](C(c2ccccc2)c2ccccc2)NC(=O)[C@H](C(c2ccccc2)c2ccccc2)NC(=O)[C@H](CCCNC(=N)N)NC(=O)[C@H](CCCNC(=N)N)NC(=O)[C@H](C(c2ccccc2)c2ccccc2)NC1=O (stereo in doubt; 16C) | 6.2 (≈ 4.79 µM) | 50 (≈ 38.6 µM) | 130 | > 100 | – | 6.2 (≈ 4.79 µM) |
| NCCCC[C@H](NC(=O)[C@H](CCCCN)NC(=O)[C@H](CCCCN)NC(=O)[C@@H](N)CCCCN)C(=O)N[C@@H](CCCCN)C(=O)N[C@H](C(=O)N[C@H](C(=O)N[C@H](C(=O)O)C(c1ccccc1)c1ccccc1)C(c1ccccc1)c1ccccc1)C(c1ccccc1)c1ccccc1 (H-KKKKK[Dip][Dip][Dip]-OH) | 50 (≈ 37.6 µM) | > 100 | 280 | > 100 | 50 (≈ 37.6 µM) | – |
| N=C(N)NCCC[C@H](NC(=O)[C@H](CCCNC(=N)N)NC(=O)[C@@H](N)CCCNC(=N)N)C(=O)N[C@@H](CCCNC(=N)N)C(=O)N[C@H](C(=O)N[C@H](C(=O)N[C@H](C(=O)N[C@H](C(=O)O)C(c1ccccc1)c1ccccc1)C(c1ccccc1)c1ccccc1)C(c1ccccc1)c1ccccc1)C(c1ccccc1)c1ccccc1 (H-RRRR[Dip][Dip][Dip][Dip]-OH) | 6.2 (≈ 4.04 µM) | 50 (≈ 32.6 µM) | 75 | 50 (≈ 32.6 µM) | 12.5 (≈ 8.14 µM) | – |
| N=C(N)NCCC[C@@H]1NC(=O)[C@H](CCCNC(=N)N)NC(=O)[C@H](CCCNC(=N)N)NC(=O)[C@H](Cc2ccc(-c3ccccc3)cc2)NC(=O)[C@H](Cc2ccc(-c3ccccc3)cc2)NC(=O)[C@H](Cc2ccc(-c3ccccc3)cc2)NC(=O)[C@H](CCCNC(=N)N)NC1=O (cyclo([Bip][Bip][Bip]RRRR)) | 3.1 (≈ 2.39 µM) | 25 (≈ 19.3 µM) | – | > 100 | 6.2 (≈ 4.79 µM) | – |
| N=C(N)NCCC[C@H](NC(=O)[C@H](CCCNC(=N)N)NC(=O)[C@H](CCCNC(=N)N)NC(=O)[C@@H](N)CCCNC(=N)N)C(=O)N[C@@H](Cc1ccc(-c2ccccc2)cc1)C(=O)N[C@@H](Cc1ccc(-c2ccccc2)cc1)C(=O)N[C@@H](Cc1ccc(-c2ccccc2)cc1)C(=O)O (H-RRRR[Bip][Bip][Bip]-OH) | 6.2 (≈ 4.72 µM) | 25 (≈ 19 µM) | – | > 100 | 12.5 (≈ 9.52 µM) | – |
| N=C(N)NCCC[C@@H]1NC(=O)[C@H](CCCNC(=N)N)NC(=O)[C@H](CCCNC(=N)N)NC(=O)[C@H](Cc2ccc(-c3ccccc3)cc2)NC(=O)[C@H](Cc2ccc(-c3ccccc3)cc2)NC(=O)[C@H](Cc2ccc(-c3ccccc3)cc2)NC(=O)[C@H](Cc2ccc(-c3ccccc3)cc2)NC(=O)[C@H](CCCNC(=N)N)NC1=O (cyclo([Bip][Bip][Bip][Bip]RRRR)) | 50 (≈ 32.9 µM) | > 100 | – | > 100 | > 100 | – |
| N=C(N)NCCC[C@H](NC(=O)[C@H](CCCNC(=N)N)NC(=O)[C@@H](N)CCCNC(=N)N)C(=O)N[C@@H](Cc1ccc(-c2ccccc2)cc1)C(=O)N[C@@H](Cc1ccc(-c2ccccc2)cc1)C(=O)N[C@@H](Cc1ccc(-c2ccccc2)cc1)C(=O)O (H-RRR[Bip][Bip][Bip]-OH) | 50 (≈ 43.2 µM) | > 100 | – | > 100 | 50 (≈ 43.2 µM) | – |
